Experimental findings from patent publication US10358405B2, “Myricanol derivatives and uses thereof for treatment of neurodegenerative diseases” (UNIVERSITY OF SOUTH FLORIDA, priority 2012, dated 2019) are described below.

pIC50: −log10 of the molar value.

Assay [1] relates to tau. Kind of assay: Tau level reduction in HeLa cells stably transfected with tau treated with myricanol derivatives. The class given is cell-based. As to conditions: for reduction of levels of tau proteins: summary statement. On the procedure:
To assess the effects of the aqueous bayberry extract on overexpressed and endogenous tau levels, HeLa cells stably transfected with tau were treated with the myricanol derivatives.

The test system of assay [2] is tau. Kind of assay: Tau-reducing-guided fractionation study of Myrica cerifera (tau destabilizer activity). The format is cell-based. As to conditions: read-out: IC50 as tau destabilizer agent. The procedure: The bayberry root-bark powder (5×1 kg) was extracted with 5×2 L of toluene under agitation in a (5×) flask protected from light (3×24 h). The filtrate was concentrated and gave 58 g of extract. The toluene extract was purified using silica gel MPLC, eluting with a gradient of 0 to 40% ethyl acetate/hexanes to yield 27 g of (+)-aR,11S-myricanol [α]D^21=48.2 (c=1.1, Chloroform).

The mark [3] stands for this setting: Table 1, tau-reducing activity, result in words.
Setting [4] is: HeLa cells stably transfected with tau.

With `COc1c2cc(c(O)c1OC)CCCC[C@H](O)CCc1ccc(O)c-2c1` [Compound 1, Myricanol], the Results result in assay [1] (setting [3]) is reported as “moderate activity”. For the same compound, the pIC50 (in general, −log10 of the IC50, conventionally taken in molar units) in assay [2] was 4.46.

On to `O=C(/C=C/c1ccc(O)cc1)CC(=O)/C=C/c1ccc(O)cc1` [Compound 10, Bisdemethoxycurcumin], for which the Results result in assay [1] (setting [4]) and in assay [1] (setting [3]) was “active” throughout.

As for `CCCCCCCCC[C@H](O)CC(=O)CCc1ccc(O)c(OC)c1` [Compound 11, [10]-Gingerol], the Results entry in assay [1] (setting [4]) was “active”; in assay [1] (setting [3]), “Active”.

Turning to `COc1c2cc(c(O)c1OC)CCC/C=C/CCc1ccc(O)c-2c1` [Compound 18, Myricacene A (trans)], the Results entry in assay [1] (setting [4]) and in assay [1] (setting [3]) was “active” in each case.

Regarding `COc1c2cc(c(O)c1OC)CCCC/C=C/Cc1ccc(O)c-2c1` [Compound 19, Myricacene B (trans)], the Results entry in assay [1] (setting [4]) and in assay [1] (setting [3]) was “active” in each case.

As for `COc1c2cc(c(O)c1OC)CCC/C=C\CCc1ccc(O)c-2c1` [Compound 21, Myricacene A (cis)], the Results result in assay [1] (setting [4]) and in assay [1] (setting [3]) was “moderately active” each time.

As to `COc1c2cc(c(O)c1OC)CCCC/C=C\Cc1ccc(O)c-2c1` [Compound 22, Myricacene B (cis)], the Results entry in assay [1] (setting [4]) and in assay [1] (setting [3]) was “active” throughout. In addition, the “tau-reducing activity, dose-dependent bioassay” value in assay [1] (concentration of 20 μg/mL) was “potent tau-reducing compound”. The “reduction of levels of tau proteins” value in assay [1] was “potently reduce levels of tau proteins”.

Consider `COc1cc2c(c(O)c1OC)CCCC1CCCc3ccc(O)c-2c31` (stereo not drawn) [Compound 23], for which the Results result in assay [1] (setting [4]) and in assay [1] (setting [3]) was “very active” in each case. Also, in assay [1], the “reduction of levels of tau proteins” value was “potently reduce levels of tau proteins”. Further, in assay [1] (treatment of HeLa cells for 24 hours), the “reduction of protein tau levels, time-dependent bioassay” value is reported as “potently reduces protein tau levels”.

In the case of `COc1c2cc(c(O)c1OC)CCCCC1CCc3ccc(O)c-2c31` (stereo not drawn) [Compound 24], the Results entry in assay [1] (setting [4]) and in assay [1] (setting [3]) was “active” each time.

In the case of Demethoxycurcumin [Compound 9], the Results result in assay [1] (setting [4]) and in assay [1] (setting [3]) was “active” each time.
